# In patent US20190030036A1, “PHOSPHODIESTERASE INHIBITOR TREATMENT” (Cyrano Therapeutics, Inc., priority 2013, published 2019):
# Where two headings read alike, the source gives them in different places.
# Experiments:
# cAMP = assay: Parotid saliva cAMP after oral theophylline (Example 2); format: in vivo, human; settings: for cAMP: parotid saliva
# Description: (§1) Parotid saliva was collected from each patient by application of a Lashley cup over Stensen's duct with lingual stimulation by placement of concentrated lemon juice. Saliva was collected in plastic tubes and stored at −20° C. until assayed. cAMP and cGMP were measured in saliva by a sensitive 96 plate spectrophotometric assay (R&D Systems, Minneapolis, Minn.).
# (§2) All patients were placed in a fixed design open label clinical trial with treatment with oral theophylline. Treatment consisted of fixed treatment periods of two-eight months with sequential doses of the drug at 200 mg, 400 mg and 600 mg. At termination of each of these intervals, patients returned to study site for reevaluation. At the end of each interval subjective responses to treatment were measured with a modification of the 0-100 scale previously used. Subjective responses to treatment were graded on a sliding scale from −100−0-+100 with patients recording improvement (+0-+100), no improvement (0) or worsening (0-−100) of their overall smell function. If overall smell function improved ≥5% they were considered to improve clinically (1). If smell function improved <5% they were considered not to improve (1). At the end of each interval subjective measurements of smell function, measurements of DT, RT, ME and H and measurements of parotid saliva for levels of cAMP and cGMP were obtained. In addition, blood plasma was obtained by venipuncture, placed in ice into zinc free tubes which contained 100 mg zinc free heparin, centrifuged at 3000 rpm for 10-20 min, the plasma transferred to plastic PCR tubes and stored at −20° C. until assayed. Theophylline was assayed by a fluorescence polarization assay (Abbott, Chicago, Ill.), as previously described.
# (§3) Data for the cyclic nucleotides from these 31 patients was not analyzed until the entire study of the 312 patients in Example 1 was assembled and analyzed in its entirety. After completion of these analyses, all data for parotid saliva cAMP and cGMP from all patients in whom salivary cAMP and cGMP were obtained were assembled. Levels of salivary cyclic nucleotides varied widely. Initially, without external criteria, there was no way to understand these disparate data. […] In a similar manner, measurements of each patient's plasma theophylline level at each dosage of theophylline (at 200 mg, 400 mg, 600 mg of theophylline) were categorized. The two patient groups were also analyzed post hoc with respect to type of smell loss and etiology of smell loss.
# hyposmic patients = assay: Smell acuity in open label trial of inhalable/nasal PDE inhibitor (Examples 3, 4); format: in vivo, human; settings: nasal theophylline, not more than 500 μg, 1 month
# Description: Hyposmic patients for whom the etiology of smell loss is not associated with head injury or allergic rhinitis are enrolled in an open label trial of inhalable theophylline. Patients are started at an initial dose of not more than 500 μg formulated as a liquid spray or dry powder to be delivered as a metered dose. Initially only local patients are enrolled so that quicker dose titration is achieved. Groups of 5 patients are started on not more than 500 μg of theophylline and continued for 1 month.
# Patients are tested for improvement in smell acuity using the standard forced choice technique using four odors as described in Example 1. Additionally, subjective measurements of smell function are obtained using a scale from 0-100 as described in Example 1. Blood samples are also drawn to ascertain blood theophylline level to gauge its relationship to the expected recovery of smell.
# Hyposmic patients for whom the etiology of smell loss is not associated with head injury or allergic rhinitis are enrolled in an open label trial of an inhalable PDE1 inhibitor. […]
# patients with hyposmia [1] = assay: Side effects of intranasal theophylline (Example 7); format: in vivo, human; settings: intranasal theophylline 20 μg per naris once a day
# Text: Ten hyposmia patients were enrolled in the study; eight patients have completed all four phases of the study with the remaining two patients still in process.
# cGMP = assay: Parotid saliva cGMP after oral theophylline (Example 2); format: in vivo, human; settings: for saliva cGMP levels over initial values: improved patients; for cGMP: parotid saliva
# Description: as §1, §2, §3
# [2] = Plasma theophylline level, intranasal theophylline pilot study (Example 7); format: in vivo, human; settings: intranasal theophylline 20 μg per naris once a day; eight patients
# Description: Blood was obtained by venipuncture to collect plasma and red blood cells used to measure trace metals (Cu, Zn, Mg), various enzymes, theophylline and other chemical moieties.
# [3] = tested on: patients with hyposmia and hypogeusia
# Description: Subjective changes in smell and taste function under each study condition were measured by questionnaire before measurements of smell or taste function. Responses were graded on a scale from 0 to 100, with 0 reflecting no subjective response in overall sensory function; 100, return to normal sensory function; and values between 0 and 100 intermediate responses. Overall sensory function was defined as the ability to smell all odors and identify all tastants, although response intensity varied.
# In this prior trial, oral theophylline was administered daily in 2 divided doses (at breakfast and lunch) of 200, 400, 600, or 800 mg for 2 to 12 months of treatment. Treatment was divided into 2- to 4-month periods, at which time patients returned to The Clinic for measurements of subjective sensory responses, olfactometry, gustometry, serum theophylline level, and body weight.
# Each patient delivered the theophylline dose in each naris once daily throughout the study. Patients underwent evaluation 1, 2, and 4 weeks during drug use with the same measurements used for the oral study.
# Values for the oral trial were taken from the last measurements made before discontinuation of oral drug treatment and before initiation of the intranasal trial. […] Values for the intranasal pilot study were taken from measurements obtained after completion of 4 weeks of intranasal treatment.
# [4] = tested on: patients with hyposmia and hypogeusia; assay: Gustometry (DT, RT, ME, HR for 4 tastants) (Example 8); format: in vivo, human
# Text: Measurements included determination of detection thresholds (DTs), recognition thresholds (RTs), magnitude estimation (ME), and hedonic response (HR) for 4 odors (e.g., pyridine [dead fish], nitrobenzene [bitter almond], thiophene [petroleum], and amyl acetate [banana oil]) (olfactometry) and for 4 tastants (e.g., sodium chloride [salt], sucrose [sweet], […] [sour], and urea [bitter]) (gustometry).
# patients with hyposmia [5] = assay: Subjective taste and smell response, intranasal theophylline pilot study (Example 7); settings: intranasal theophylline 20 μg per naris once a day, four weeks; six of first eight patients
# Description: These patients were previously treated with oral theophylline or were switched from oral theophylline to intranasal theophylline at the start of the study. Selection for inclusion in the intranasal study was based upon several criteria. 1) non-response to oral theophylline; 2) severe side effects with oral theophylline that prevented reaching a dose of sufficient strength to restore smell function; and/or 3) preference for intranasal medication over oral medication.
# Subjective responses to treatment were obtained independent of any interaction with the clinical staff by using a scale of 0-100 to measure response of taste function and smell function to treatment with 0 indicating no response, 100 indicating return to normal function and intermediate numbers indicating an intermediate response.
# The patients inserted a plastic syringe containing 0.4 ml of fluid (20 μg theophylline) into each naris once a day. […] The drug dose was delivered through a plastic nipple which fitted snugly onto the filled syringe which was attached directly to the nipple. One nipple was supplied for each set of two syringes in each application kit. The patient fitted the nipple on one syringe, placed the nipple securely into the lower naris and injected the contents of the syringe directly into the lower vault of one naris accompanied by a modest inhalation. […]
# [6] = tested on: patients with hyposmia and hypogeusia; assay: Adverse effects of intranasal theophylline (Example 8); format: in vivo, human; settings: intranasal theophylline 20 μg/d in each naris, 4 weeks
# Description: Under each condition, we performed subjective evaluations of taste and smell functions, quantitative measurements of taste (gustometry) and smell (olfactometry), and measurements of serum theophylline level and body weight.
# The intranasal administration device was a calibrated 1 mL syringe fitted with a nozzle that fit comfortably into the anterior naris (Wolfe Tory Medical, Inc) and loaded under sterile conditions with 20 μg of theophylline methylpropyl paraben in a 0.4-mL saline solution (Foundation Care). Patients were instructed to direct the spray superiorly into the nasal cavity but not posteriorly into the nasopharynx. This technique was practiced before study initiation with sterile saline.
# [7] = oral theophylline 200 mg, patients with unimproved smell function (9)
compound,measurement,setting,value
Cn1c(=O)c2[nH]cnc2n(C)c1=O [theophylline],increase of saliva cAMP levels above baseline,"cAMP; oral theophylline 200 mg, improved patients, not significant",10%
same,increase of saliva cAMP levels over baseline,"cAMP; oral theophylline 400 mg, improved group, not statistically significant",40%
same,increase of saliva cAMP levels above initial values,"cAMP; oral theophylline 600 mg, improved patients, significant",67%
same,cAMP,"cAMP; oral theophylline 200 mg, patients with improved smell function (16)",0.96 ± 0.13 pmol/mL
same,cAMP,cAMP; [7],0.78 ± 0.26 pmol/mL
same,cAMP,"cAMP; oral theophylline 400 mg, patients with improved smell function (12)",1.22 ± 0.33 pmol/mL
same,cAMP,"cAMP; oral theophylline 400 mg, patients with unimproved smell function (5)",0.95 ± 0.26 pmol/mL
same,cAMP,"cAMP; oral theophylline 600 mg, patients with unimproved smell function (9)",0.56 ± 0.21 pmol/mL
same,recovery of smell acuity compared with oral administration,hyposmic patients,at least an equivalent recovery of smell acuity
same,side effects of intranasal use,patients with hyposmia [1],No side effects
same,mean serum theophylline level,during intranasal theophylline 20 μg/d in each naris,0.0 (0.0)
same,mean (SEM) serum theophylline level,"human, in vivo, po",6.4 (2.0) mg/L
same,saliva cGMP levels over initial values,cGMP; oral theophylline 400 mg,275%
same,saliva cGMP levels over initial values,cGMP; oral theophylline 600 mg,338%
same,cGMP,"cGMP; oral theophylline 200 mg, patients with improved smell function (15)",0.08 ± 0.016 pmol/mL
same,cGMP,cGMP; [7],0.07 ± 0.018 pmol/mL
same,cGMP,"cGMP; oral theophylline 400 mg, patients with unimproved smell function (4)",0.05 ± 0.014 pmol/mL
same,cGMP,"cGMP; oral theophylline 600 mg, patients with unimproved smell function (5)",0.04 ± 0.07 pmol/mL
same,plasma theophylline levels,[2],zero
same,earliest time improvement was measured,[3]; intranasal theophylline,1 week
same,improvement in taste and smell functions compared with oral treatment,"[3]; intranasal theophylline 20 μg/d in each naris, 4 weeks",2 fold
same,patients reporting overall improvement in taste and smell functions,"[3]; intranasal theophylline 20 μg/d in each naris, 4 weeks, 10 patients",8 patients
same,earliest time improvement was measured,[3]; oral theophylline,2 months
same,patients reporting overall increased taste and smell function,"[3]; oral theophylline 200 to 800 mg/d, 2 to 12 months, 10 patients",6 patients
same,Magnitude estimations for all tastants,[4]; intranasal theophylline vs before any treatment or after oral theophylline,higher (more intense)
same,DTs and RTs for all tastants,[4]; intranasal theophylline vs before treatment or after oral theophylline,lower (more sensitive)
same,patients with subjective improvement in smell function,patients with hyposmia [5],75%
same,adverse effects,[6],No adverse effects
